The text below walks through data of patent US20060003942A1, “Combinations for HCV treatment” (priority 2003, published 2006).

Structures are written as SMILES. Read-outs that look alike come from different tables or passages of the source.

For data set [1], the system named is VX-950 metabolism in human hepatic microsomes. The data set is classed as in vitro ADME. Conditions: 0.25 μM VX-950, 0.25 mg microsomal protein/mL, 2 minutes.

Consider `CC(C)c1nc(CN(C)C(=O)N[C@H](C(=O)N[C@@H](Cc2ccccc2)C[C@H](O)[C@H](Cc2ccccc2)NC(=O)OCc2cncs2)C(C)C)cs1` [ritonavir], for which the figures for the “effect of ritonavir on VX-950 metabolism” value in data set [1] (ritonavir 10 to 100 μM) and in data set [1] (ritonavir up to 3 μM) were “increase in VX-950 metabolism” and “inhibition of VX-950 metabolism”, respectively.
In the case of `CCC[C@H](NC(=O)[C@@H]1[C@H]2CCC[C@H]2CN1C(=O)[C@@H](NC(=O)[C@@H](NC(=O)c1cnccn1)C1CCCCC1)C(C)(C)C)C(=O)C(=O)NC1CC1` [VX-950], the “metabolized in human liver microsomes” value (1 h, 2 μM) was 73%; the “metabolized in human liver microsomes” value (1 h, 20 μM) was 7%; the “metabolized in human liver microsomes” value (2 h, 2 μM) stood at 86%; the “metabolized in human liver microsomes” value (2 h, 20 μM) is 21%.
